This experiment concerns bronchoconstriction caused by 100 nmol/kg of histamine. Description: Histamine-induced bronchoconstriction test (Konzett and Rossler), intranasal-powder (In.P.) administration. The class given is in vivo, guinea pigs. An excerpt:
Furthermore, the antihistaminic properties were studied in guinea pigs by the bronchoconstriction test performed according to the method of H. Konzett and R. Rossler (Arch. Exp. Path. Pharmak.--Naunym Schmiedeberg - 195, 71-74, 1940). The products of the invention were studied in this test after administration in solution or in suspension via the intravenous and intraduodenal routes, and also in powder form via the intranasal route. Irrespective of the administration route, the preparation of the animals employed in the test consists in first anesthetizing male guinea pigs weighing 350 to 400 g by intraperitoneal (i.p.) injection of a sterile and isotonic solution containing 25% (w/v.) of ethyl carbamate on the basis of 6.0 ml/kg, and in then fitting the animals with a tracheal cannula to permit measurement of the pulmonary pressure, a cannula in the right jugular vein for the intravenous (i.v.) administration of solution, and also a cannula in the left carotid artery for qualitative observation of the blood pressure. The animals are then connected to a pump (Harvard, ref. 50-1718) in order to maintain an artificial ventilation at a frequency of 60 insufflations per minute; the intratracheal pressure is recorded by an assembly comprising a transducer, an amplifier and a recorder (Gould, respective refs.: PLOEZ, 13-4615-50 and 8188-[…]-06). Fitted in this way, the animals are left undisturbed for 10 minutes before the beginning of the actual experiment, which is carried out in different ways according to the administration route envisaged. c) intranasal-powder (In.p) administration The test product is administered via a nasal insufflation of a powder consisting of 20 mg of lactose loaded with the appropriate quantity of the test product. Before this insufflation, the artificial ventilation of the animal is momentarily stopped in order to facilitate the pulmonary penetration of the compound. […] Failing this expression, the results are expressed as a % change at the time in question and for a given concentration of the test product. […]

As usually defined, the ED50 is the dose at which the effect has come halfway, by size or by number of responders.

SMILES strings stand for the structures. Structures can show the parent of a compound that is named as a salt.

Take `C=CCN(C)[C@](C)(CO)Cc1ccc(Cl)c(Cl)c1` [Example 2, base, (S)-(+)-N-allyl-2-methylamino-2-(3,4-dichlorobenzyl)-1-propanol]: under “Cavia porcellus, 5 min, t = 5 min, read-out: ED50 at t = 5 min, inhibition of histamine-induced bronchoconstriction”, the ED50 is 1.28 µmol/kg.

Turning to `C=CCN(C)[C@](C)(CO)Cc1ccc(Cl)c(Cl)c1` [Example 2, hydrochloride, (S)-(+)-N-allyl-2-methylamino-2-(3,4-dichlorobenzyl)-1-propanol], the 50% effective dose (ED50) at t = 5 min, inhibition of histamine-induced bronchoconstriction turned out to be 1.77 µmol/kg.

(Values after patent publication US5348980A, “Enantiomers derived from (S)-2-amino-2-(3,4-dichlorobenzyl)-1-propanol, their use and method of preparation” (Institute de Recherche Jouveinal, priority 1992, dated 1994).)
